The text below walks through data of patent US8247409B2, “Thieno-[2,3-d]pyrimidine and thieno-pyridazine compounds and methods of use” (Amgen Inc., priority 2006, dated 2012).

This experiment relates to LPS induced TNF release from monocytes. In words: Lipopolysaccharide-activated Monocyte TNF Production Assay. It counts as cell-based. Particulars: Homo sapiens, monocytes activated with LPS, TNF in supernatant by ELISA. As to the method: Lipopolysaccharide-activated Monocyte TNF Production Assay
Test compounds were evaluated in vitro for the ability to inhibit the production of TNF by monocytes activated with bacterial lipopolysaccharide (LPS). Fresh residual source leukocytes (a byproduct of plateletpheresis) were obtained from a local blood bank, and peripheral blood mononuclear cells (PBMCs) were isolated by density gradient centrifugation on Ficol-Paque Plus (Pharmacia). PBMCs were suspended at 2×10^6/mL in DMEM supplemented to contain 2% FCS, 10 mM, 0.3 mg/mL […], 100 U/mL penicillin G and […] streptomycin sulfate (complete media). Cells were plated into Falcon flat bottom, 96 well culture plates (200 μL/well) and cultured overnight at 37° C. and 6% CO2. Non-adherent cells were removed by washing with 200 μL/well of fresh medium. Wells containing adherent cells (˜70% monocytes) were replenished with 100 μL of fresh medium.
Preparation of Test Compound Stock Solutions
Test compounds were dissolved in […]. Compound stock solutions were prepared to an initial concentration of […]. Stocks were diluted initially to 20-200 μM in complete media. Nine two-fold serial dilutions of each compound were then prepared in complete medium.
Treatment of Cells with Test Compounds and Activation of TNF Production with Lipopolysaccharide
One hundred microliters of each test compound dilution were added to microtiter wells containing adherent monocytes and 100 μL complete medium. Monocytes were cultured with test compounds for 60 min at which time 25 μL of complete medium containing 30 ng/mL lipopolysaccharide from E. coli K532 were added to each well. Cells were cultured an additional 4 hrs. Culture supernatants were then removed and TNF presence in the supernatants was quantified using an ELISA.
Flat bottom, 96 well Corning High Binding ELISA plates were coated overnight (4° C.) with 150 μL/well of 3 μg/mL murine anti-human TNF-α MAb (R&D Systems #MAB210). Wells were then blocked for 1 h at room temperature with 200 μL/well of CaCl2-free ELISA buffer supplemented to contain 20 mg/mL BSA (standard ELISA buffer: […], 150 mM NaCl, 2 mM CaCl2, 0.15 mM thimerosal, pH 7.4). Plates were washed and replenished with 100 μL of test supernatants (diluted 1:3) or standards. Standards consisted of eleven 1.5-fold serial dilutions from a stock of 1 ng/mL recombinant human TNF (R&D Systems). Plates were incubated at room temperature for 1 hr on orbital shaker (300 rpm); washed and replenished with 100 μL/well of 0.5 μg/mL goat anti-human TNF-α (R&D systems #AB-210-NA) biotinylated at a 4:1 ratio. Plates were incubated for 40 min, washed and replenished with 100 μL/well of alkaline phosphatase-conjugated streptavidin (Jackson ImmunoResearch #016-050-084) at 0.02 μg/mL. Plates were incubated 30 min, washed and replenished with 200 μL/well of 1 mg/mL of p-nitrophenyl phosphate. After 30 min, plates were read at 405 nm on a Vmax plate reader.
Standard curve data were fit to a second order polynomial and unknown TNF-α concentrations determined from their OD by solving this equation for concentration. TNF concentrations were then plotted vs. test compound concentration using a second order polynomial. This equation was then used to calculate the concentration of test compounds causing a 50% reduction in TNF production.
In general terms: In an ELISA, binding on a coated surface is turned into a signal by an enzyme label.
What is called IC50 is the concentration needed to halve the response being measured. Turning to `CCN(CC)CCCNc1ncc2cc(-c3cc(C(=O)NC4CC4)ccc3C)sc2n1` [Example 7, N-cyclopropyl-3-(2-((3-(diethylamino)propyl)amino)thieno[2,3-d]pyrimidin-6-yl)-4-methylbenzamide], the IC50 is ≤ 5 µM. The value for `Cc1ccc(C(=O)NC2CC2)cc1-c1cc2cnnc(N3CCNC(=O)C3)c2s1` [Example 6, N-cyclopropyl-4-methyl-3-(7-(3-oxopiperazin-1-yl)thieno[2,3-d]pyridazin-2-yl)benzamide] was ≤ 5 µM.

Take `Cc1ccc(C(=O)NC2CC2)cc1-c1cc2cnnc(Cl)c2s1` [Example 21, 3-(7-chlorothieno[2,3-d]pyridazin-2-yl)-N-cyclopropyl-4-methylbenzamide]: the IC50 is ≤ 5 µM.

Take `Cc1ccc(C(=O)NC2CC2)cc1-c1cc2cnc(NCC3CCCN(C(=O)OC(C)(C)C)C3)nc2s1` (centres unmarked) [Example 14, 1,1-dimethylethyl 3-(((6-(5-((cyclopropylamino)carbonyl)-2-methylphenyl)thieno[2,3-d]pyrimidin-2-yl)amino)methyl)-1-piperidinecarboxylate]: the IC50 is ≤ 5 µM.

As for `CCNC(=O)c1ccc(C)c(-c2cc3cnc(NCCN4CCOCC4)nc3s2)c1` [Example 9, N-ethyl-4-methyl-3-(2-((2-(4-morpholinyl)ethyl)amino)thieno[2,3-d]pyrimidin-6-yl)benzamide], the IC50 was ≤ 5 µM.

`Cc1ccc(C(=O)NC2CC2)cc1-c1cc2cnc(CCN3CCOCC3)nc2s1` [Example 1, N-Cyclopropyl-4-methyl-3-(2-(2-morpholinoethyl)thieno[2,3-d]pyrimidin-6-yl)benzamide]: the IC50 was ≤ 5 µM. As for `COc1ncccc1-c1nncc2cc(-c3cc(C(=O)NC4CC4)ccc3C)sc12` [Example 23, N-cyclopropyl-4-methyl-3-(7-(2-(methyloxy)-3-pyridinyl)thieno[2,3-d]pyridazin-2-yl)benzamide], the IC50 is ≤ 5 µM. The value for `Cc1ccc(C(N)=O)cc1-c1cc2cnnc(-c3ccc(F)cc3C)c2s1` [Example 27, 3-(7-(4-fluoro-2-methylphenyl)thieno[2,3-d]pyridazin-2-yl)-4-methylbenzamide] was ≤ 5 µM.

Consider `Cc1ccc(C(=O)NC2CC2)cc1-c1cc2cnnc(-c3ccc(F)cc3C)c2s1` [Example 22, N-cyclopropyl-3-(7-(4-fluoro-2-methylphenyl)thieno[2,3-d]pyridazin-2-yl)-4-methylbenzamide], for which the half-inhibitory concentration (IC50) was ≤ 5 µM.

`Cc1ccc(C(=O)O)cc1-c1cc2cnc(NCCN3CCOCC3)nc2s1` [Example 10, 4-methyl-3-(2-((2-(4-morpholinyl)ethyl)amino)thieno[2,3-d]pyrimidin-6-yl)benzoic acid]: the IC50 was ≤ 5 µM. The value for `COc1c(F)cccc1-c1nncc2cc(-c3cc(C(=O)NC4CC4)ccc3C)sc12` [Example 3, N-cyclopropyl-3-(7-(3-fluoro-2-methoxyphenyl)thieno[2,3-d]pyridazin-2-yl)-4-methylbenzamide] was ≤ 5 µM.
